Consider 10 molecules from ChEMBL document CHEMBL1144790, “Prodrugs of phosphates and phosphonates” (J Med Chem, 2008).

One data set relates to Liver. In words: Metabolic stability in rat liver S9 fraction assessed as esterase conversion rate. It is filed as ADME, subcellular.
The nature of data set [1]: Aqueous stability assessed as time to reach 90% of starting dose at pH 7. The conditions noted are these: buffer.
Data set [2] in a line: Aqueous stability assessed as time to reach 90% of starting dose at pH 3.0 to 7.4. The following applies: buffer. It is filed as physicochemical.
Data set [3] is described as follows: Chemical stability assessed as half life of hydrolysis in phosphate buffer at pH 8.5. It is filed as physicochemical.
Data set [4] can be described thus: Chemical stability assessed as half life of hydrolysis in carbonate buffer at pH 8.5. It is filed as physicochemical.
A short description of data set [5]: Chemical stability assessed as half life of hydrolysis at acidic pH. It is filed as physicochemical.
Data set [6] can be described thus: Chemical stability assessed as half life of hydrolysis at neutral pH. It is filed as physicochemical.
The next data set relates to Trypanosoma brucei. In words: Antiparasitic activity against Trypanosoma brucei. It is filed as functional, organism-based.
Data set [7] is described as follows: Stability in human gastric juice assessed as half life of hydrolysis. It is filed as ADME, tissue-based.
Data set [8] is described as follows: Stability in human serum assessed as half life of hydrolysis. It is filed as ADME, cell-free.
Data set [9] is described as follows: Aqueous stability assessed as time to reach 90% of starting dose at pH 7. It is filed as physicochemical. The following applies: buffer.
Data set [10] in a line: Oral bioavailability in rat. It is filed as ADME, organism-based. The following applies: in vivo.

Regarding `CC(=O)SCCOP(=O)(OCCSC(C)=O)c1ccc(-c2nc(N)sc2CC(C)C)o1`, the Stability in the data set on Liver is over 300 nmol/min/mg; in data set [1] it was 8 h.

Consider `CCOC(=O)CNP(=O)(NCC(=O)OCC)c1ccc(-c2nc(N)sc2CC(C)C)o1`, for which the Stability with Liver was 43 nmol/min/mg; in [1], 36 h.

Consider `CC(=O)Oc1ccc(COP(=O)(OCc2ccc(OC(C)=O)cc2)c2ccc(-c3nc(N)sc3CC(C)C)o2)cc1`, for which the Stability was under 4 h in data set [2] and over 300 nmol/min/mg with Liver.

Consider `CC(C)Cc1sc(N)nc1-c1ccc(P(=O)(OCOC(=O)C(C)(C)C)OCOC(=O)C(C)(C)C)o1`, for which the Stability in the data set on Liver is over 300 nmol/min/mg; in data set [1], under 4 h.

With `O=C(O)CCNC(=O)[C@H](Cc1ccc(-c2ccccc2)cc1)NCP(=O)(Oc1ccccc1)Oc1ccccc1`, the half-life was over 4 days in data set [3] and 30 min in [4].

On to `CCOC(=O)[C@H](C)NP(=O)(Oc1ccccc1)c1ccc(-c2nc(N)sc2CC(C)C)o1` (stereo partly specified), for which the Stability was found to be 55 nmol/min/mg in the data set on Liver and 14 h in data set [1].

Take `CC(C)(C)C(=O)OCOP(=O)(OCOC(=O)C(C)(C)C)OC[C@H]1O[C@@H](n2cc(F)c(=O)[nH]c2=O)C[C@@H]1O`: the half-life in data set [5] and in [6] was over 2400 min each time.

In the data set with Trypanosoma brucei, `CC(C)(C)C(=O)SCCOP(=O)(OCCSC(=O)C(C)(C)C)Oc1ccc(O)c(C(=O)O)c1` returned a 50% inhibitory concentration (IC50) of 20 µM.

As to `CC(C)(C)C(=O)SCCOP(=O)(COCCn1cnc2c(N)ncnc21)OCCSC(=O)C(C)(C)C`, the results for the half-life in data set [7] and in data set [8] were under 5 min and 240 min, respectively.

For the molecule `CCOC(=O)[C@H](C)NP(=O)(N[C@@H](C)C(=O)OCC)c1ccc(-c2nc(N)sc2CC(C)C)o1`, the Stability is over 7 days in data set [9], over 48 h in data set [2] and 11 nmol/min/mg in the data set with Liver. For the same molecule, in data set [10], the bioavailability is 22%.
